{"source": "patent US9302999B2", "about": "“Substituted triazoles as herbicides” (E. I. DU PONT DE NEMOURS AND COMPANY, priority 2012, dated 2016)", "format_in_all_cases": "in vivo", "key": {"[1]": {"tested_on": "barnyardgrass (Echinochloa crus-galli)", "experiment": "Test B flooded paddy: barnyardgrass", "settings": "Flood; 250 g ai/ha; applied to paddy water at 2-leaf stage; visually evaluated after 13 to 15 days", "how_it_was_run": "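At two leaves, seedlings received the test compound via the paddy water, pots having been flooded 3 cm over the soil surface and kept so. Greenhouse-held for 13 to 15 days, then judged by eye against controls on a scale running 0 (no effect) to 100 (complete control).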"}, "[2]": {"tested_on": "Russian thistle (Salsola kali)", "experiment": "Test C pre-/postemergence: Russian thistle", "settings": "Preemergence", "how_it_was_run": "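Visual injury scored 0–100 (100 = complete control) against untreated controls after 13–15 greenhouse days. Surfactant-containing solvent formulations applied either to soil after sowing (loam/sand) or over 1- to 4-leaf plants, 2–18 cm tall.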"}, "[3]": {"tested_on": "barley (winter barley, Hordeum vulgare)", "experiment": "Test C postemergence: barley", "how_it_was_run": "(§1)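 Visual ratings of 0 (no effect) to 100 (complete control) were made against controls 13-15 days after a postemergence spray, with plants kept in a greenhouse. Plants were 2-18 cm tall (1- to 4-leaf stage) in Redi-Earth peat/vermiculite medium at treatment.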"}, "[4]": {"tested_on": "windgrass (Apera spica-venti)", "experiment": "Test C postemergence: windgrass", "how_it_was_run": "as §1"}, "[5]": {"tested_on": "barley, spring (spring barley, Hordeum vulgare)", "experiment": "Test D pre-/postemergence: barley, spring", "how_it_was_run": "(§2)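 Visual ratings from 0 (no effect) to 100 (complete control) were made 14–21 days after treatment, relative to controls. Applications were preemergence to seeds in silt loam, or postemergence to 2–18 cm (1–4 leaf) plants in peat-based medium. Compounds were formulated in a surfactant-containing non-phytotoxic solvent.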"}, "[6]": {"tested_on": "wheat, winter (winter wheat, Triticum aestivum)", "experiment": "Test D pre-/postemergence: wheat, winter", "how_it_was_run": "as §2"}, "[7]": {"settings": "125 g ai/ha, scale 0 to 100, 0 no effect, 100 complete control"}, "[8]": {"settings": "31 g ai/ha, scale 0 to 100 (0 no effect, 100 complete control)"}, "[9]": {"settings": "62 g ai/ha, scale 0 to 100 (0 no effect, 100 complete control)"}, "[10]": {"settings": "Postemergence, 31 g ai/ha, scale 0 to 100 (0 no effect, 100 complete control)"}, "[11]": {"settings": "Postemergence, 62 g ai/ha, scale 0 to 100 (0 no effect, 100 complete control)"}, "[12]": {"settings": "Postemergence, 125 g ai/ha, scale 0 to 100, 0 no effect, 100 complete control"}, "[13]": {"settings": "Postemergence, 250 g ai/ha, scale 0 to 100 (0 no effect, 100 complete control)"}, "[14]": {"settings": "Postemergence, 16 g ai/ha, scale 0 to 100"}, "[15]": {"settings": "Preemergence, 16 g ai/ha, scale 0 to 100 (0 no effect, 100 complete control)"}, "[16]": {"settings": "Preemergence, 31 g ai/ha, scale 0 to 100 (0 no effect, 100 complete control)"}, "[17]": {"settings": "Preemergence, 62 g ai/ha, scale 0 to 100"}, "[18]": {"settings": "Preemergence, 125 g ai/ha, scale 0 to 100"}, "[19]": {"settings": "Preemergence, 250 g ai/ha, scale 0 to 100"}}}
{"smiles": "CCOc1nn(-c2ccc(F)cc2)nc1Cc1ccnc(C(F)F)c1", "note": "[Compound 195]", "values": [{"measurement": "Plant response rating, Barnyardgrass (0 to 100 scale, 0 is no effect, 100 is complete control)", "setting": "[1]", "value": 85}, {"measurement": "Plant response rating, Russian Thistle", "setting": "[2]; 31 g ai/ha, scale 0 (no effect) to 100 (complete control)", "value": 90}, {"measurement": "Plant response rating, Russian Thistle", "setting": "[2]; 62 g ai/ha, scale of 0 to 100, 0 is no effect, 100 is complete control", "value": 90}, {"measurement": "Plant response rating, Russian Thistle", "setting": "[2]; [7]", "value": 90}, {"measurement": "Plant response rating, Russian Thistle", "setting": "[2]; 250 g ai/ha, scale 0 to 100, 0 no effect, 100 complete control", "value": 90}, {"measurement": "Plant response rating, Barley", "setting": "[3]; [8]", "value": 15}, {"measurement": "Plant response rating, Barley", "setting": "[3]; [9]", "value": 20}, {"measurement": "Plant response rating, Barley", "setting": "[3]; [7]", "value": 35}, {"measurement": "Plant response rating, Barley", "setting": "[3]; 250 g ai/ha, scale 0 to 100", "value": 35}, {"measurement": "Plant response rating, Windgrass", "setting": "[4]; [8]", "value": 55}, {"measurement": "Plant response rating, Windgrass", "setting": "[4]; [9]", "value": 80}, {"measurement": "Plant response rating, Windgrass", "setting": "[4]; [7]", "value": 95}, {"measurement": "Plant response rating, Windgrass", "setting": "[4]; 250 g ai/ha, scale 0 to 100 (0 no effect, 100 complete control)", "value": 100}, {"measurement": "Plant response rating: Barley, Spring", "setting": "[5]; [10]", "value": 15}, {"measurement": "Plant response rating: Barley, Spring", "setting": "[5]; [11]", "value": 20}, {"measurement": "Plant response rating: Barley, Spring", "setting": "[5]; [12]", "value": 30}, {"measurement": "Plant response rating: Barley, Spring", "setting": "[5]; [13]", "value": 40}, {"measurement": "Plant response rating, Barley, Spring", "setting": "[5]; [14]", "value": 10}, {"measurement": "Plant response rating, Barley, Spring", "setting": "[5]; [15]", "value": 0}, {"measurement": "Plant response rating, Barley, Spring", "setting": "[5]; [16]", "value": 0}, {"measurement": "Plant response rating, Barley, Spring", "setting": "[5]; [17]", "value": 0}, {"measurement": "Plant response rating, Barley, Spring", "setting": "[5]; [18]", "value": 0}, {"measurement": "Plant response rating, Barley, Spring", "setting": "[5]; [19]", "value": 30}, {"measurement": "Plant response rating: Wheat, Winter", "setting": "[6]; [10]", "value": 10}, {"measurement": "Plant response rating: Wheat, Winter", "setting": "[6]; [11]", "value": 10}, {"measurement": "Plant response rating: Wheat, Winter", "setting": "[6]; [12]", "value": 25}, {"measurement": "Plant response rating: Wheat, Winter", "setting": "[6]; [13]", "value": 40}, {"measurement": "Plant response rating, Wheat, Winter", "setting": "[6]; [14]", "value": 5}, {"measurement": "Plant response rating, Wheat, Winter", "setting": "[6]; [15]", "value": 0}, {"measurement": "Plant response rating, Wheat, Winter", "setting": "[6]; [16]", "value": 0}, {"measurement": "Plant response rating, Wheat, Winter", "setting": "[6]; [17]", "value": 0}, {"measurement": "Plant response rating, Wheat, Winter", "setting": "[6]; [18]", "value": 0}, {"measurement": "Plant response rating, Wheat, Winter", "setting": "[6]; [19]", "value": 10}]}
